From ChEMBL document CHEMBL1201862, “PubChem BioAssay data set” (2004)
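Results reflect a 48-hour exposure of cells in 96-well plates to compound at five concentrations. GI50 marks 50% less growth.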 Active and inactive are the calls of the source. Rule as the data show it: active = GI50 up to about 1.1 µM and inactive = higher.

Key:
Test in all cases: NCI tumour cell line growth inhibition, 48 h
SK-OV-3 = test system: SK-OV-3
NCI-H226 = test system: NCI-H226
PC-3 = test system: PC-3
MDA-MB-435 = test system: MDA-MB-435
UO-31 = test system: UO-31
COLO 205 = test system: COLO 205
BT-549 = test system: BT-549
SF-539 = test system: SF-539
HT-29 = test system: HT-29
IGROV-1 = test system: IGROV-1
SF-295 = test system: SF-295
MDA-N = test system: MDA-N
LOX IMVI = test system: LOX IMVI
TK-10 = test system: TK-10
CAKI-1 = test system: CAKI-1
NCI-H23 = test system: NCI-H23
SNB-75 = test system: SNB-75
M14 = test system: M14
SN12C = test system: SN12C
SK-MEL-2 = test system: SK-MEL-2

Measured: GI50

c1ncc(C23C4C5C6C4C2C6C53)[nH]1 (stereo not given)
inactive: SK-OV-3 > 100 µM | NCI-H226 > 100 µM | PC-3 > 100 µM | MDA-MB-435 > 100 µM | UO-31 > 100 µM | COLO 205 > 100 µM | BT-549 > 100 µM | SF-539 > 100 µM | HT-29 > 100 µM | IGROV-1 > 100 µM | SF-295 > 100 µM | MDA-N > 100 µM | LOX IMVI > 100 µM | TK-10 > 100 µM | CAKI-1 > 100 µM | NCI-H23 > 100 µM | SNB-75 > 100 µM | M14 > 100 µM | SN12C > 100 µM | SK-MEL-2 > 100 µM
